Measurements taken from patent US3997543A (priority 1974, dated 1976).
Where “and” joins values, the source holds several entries; their conditions need not be identical. Equal entries are not always repeated. Where two headings read alike, the source gives them in different places.

What was measured:
[1] = tested on: guinea pig ileum; test: tissue or blood; format: cell-based; conditions: for EC50: Cavia porcellus, read-out: ED50
[2] = tested on: Human Eyes; conditions: in vivo
[3] = tested on: Human Eyes; conditions: in vivo; remark: listed apart in the source
[4] = tested on: Mice Eyes; conditions: mouse, in vivo
[5] = in vivo
[6] = pH 7

CC(=O)OCC[N+](C)(C)C [Acetylcholine, reference compound]
EC50 [1]: 30 nM

CC(=O)OC1CN2CCC1CC2 (single isomer, unassigned; (+)) [(+) H Cl, (+) 3-acetoxy quinuclidine]
Pupil Diameter [2]: 3.5 mm | Pupil Diam. [3]: 4.5 mm and 3.0 mm and 3.5 mm | Time after which acute miosis developed [4]: 4 min | ACh-like agonist strength [1]: strongest agonist | Blockade of agonist effect by atropine [1]: blocked | EPMR (Equipotent molar ratio) [1]: 25

CC(=O)OC1CN2CCC1CC2 (single isomer, unassigned; (-)) [(-) H Cl]
Pupil Diameter [3]: 4.5 mm and 4.0 mm and 3.5 mm and 3.7 mm and 3.0 mm and 3.2 mm and 3.6 mm | Reversal of Mydriasis Time [4]: > 15 min | EPMR (Equipotent molar ratio) [1]: 100

CC[C@@H]1C(=O)OC[C@@H]1Cc1cncn1C [Pilocarpine]
Intraoccular pressure [5]: 31 mmHg and 33 mmHg and 24 mmHg and 25 mmHg and 26 mmHg and 29 mmHg and 28 mmHg

CC(=O)OC1CN2CCC1CC2 (racemic) [(±) H Cl, 3-acetoxy-quinuclidine, reference compound]
EPMR (Equipotent molar ratio) [1]: 20 | EC50 [1]: 700 nM

CC(=O)OC1CN2CCC1CC2 (single isomer, unassigned; (+)) [(+) 3-acetoxy quinuclidine]
stability of solutions on storage [6]: no perceptible deterioration
